The values that follow come from patent EP4656654A1, “SOMATOSTATIN PEPTIDE ANALOGUE, CHELATE AND USE THEREOF” (Qianhangjiang Pharmaceutical Co., Ltd., priority 2023, dated 2025).

The test has as its target T1, SSTR2 (Homo sapiens, UniProt P30874).
T1 construct: host or cells: CHO-K1
As to the kind of experiment: competitive radioligand binding assay (125I-Tyr11-Somatostatin-14) on membranes of SSTR2-overexpressing CHO-K1 cells. The conditions noted are these: for pEC50: radioligand 125I-Tyr11-Somatostatin-14, SSTR2 CHO-K1 cell membrane; for Bottom: parameter A, bottom of fitted % Effect curve; for Top: parameter B, top of fitted % Effect curve; for Hill slope: parameter D of fitted curve. On the procedure:
A competitive radioligand binding assay is utilized to measure the binding affinity of the somatostatin analogs of Formula II of the present invention. SSTR2-overexpressing CHO-K1 cells (Hunter Express SSTR2 CHO-K1; DiscoverX) are used in the radioligand competitive binding assay, with ^125I-Tyr^11-Somatostatin-14 (PerkinElmer) as the radioligand. The assay is performed as follows:
SSTR2-overexpressing CHO-K1 cells (from Discover X) were cultured in complete medium (F12 basal medium with 10% FBS and 1% P/S [100 U/mL penicillin and 100 µg/mL streptomycin]) in a 37°C incubator with 5% CO2. When the cell confluency reached 80-90%, the cells were washed twice with pre-cooled PBS. The cells were then scraped off with a cell scraper and transferred to a 50 mL centrifuge tube, followed by centrifugation at 500×g and 4°C for 10 minutes. The supernatant was discarded, and the cell pellet was retained. Cell membrane lysis buffer (containing 25 mM HEPES, 1 mM EDTA, 2 mM MgCl2, and 1× protease inhibitor, pH = 7.4) was added at a ratio of 4 × 10^7 cells/10 mL and placed on ice for 10 minutes. The cells were then disrupted using an IKA disruptor. The operating procedure was 15,000 rpm for 10 seconds, repeated twice. The disrupted cell suspension was centrifuged at 4°C and 650×g for 5 minutes. The supernatant was transferred to a new centrifuge tube and centrifuged at 13,000 rpm and 4°C for 30 minutes. The supernatant was discarded, and the cell membrane pellet was resuspended in 1.6 mL of resuspension buffer, which was cell membrane lysis buffer supplemented with 10% sucrose. The cell membrane lysis buffer was repeatedly aspirated 4 times with a 27-gauge needle to break the DNA. The cell membrane extract was measured for protein concentration using the BCA method and aliquoted and stored at -80°C.
• (1) Dilution of Compound: The assay buffer used contains 50 mM Hepes, 5 mM MgCl2, 1 mM CaCl2, and 0.5% BSA, pH = 7.4, and the buffer is filtered. The assay buffer is kept at 4°C. The ligand solution is serially diluted using an Agilent Bravo. Each test compound is diluted […] in succession. The eight binding concentrations of typical compounds are: 50 nM, 12.5 nM, 3.13 nM, 0.78 nM, 0.20 nM, 0.05 nM, 12.2 pM, and 3.05 pM. The affinity of each concentration is measured twice. Transfer 1 µL of each diluted compound to the corresponding wells of a 96-well V-bottom plate. • (2) Preparation of 125I-SST: The stock solution of 125I-SST was diluted to 3 nM (10×) with binding buffer (containing 50 mM Hepes, 5 mM MgCl2, 1 mM CaCl2, and 0.5% BSA, pH = 7.4, stored at 4°C). Transfer 10 µL of the solution to the corresponding compound well. • (3) Binding Experiment: The extracted cell membrane was diluted to 2.5 µg/90 µL with binding buffer and added to the corresponding wells. The mixture was incubated at 500 rpm on a 25°C shaker for 2 hours. The membrane complex was collected into a 0.5% PEI pre-coated GF/B plate using a Cell Harvester, and rinsed 3 times per well with 200 µL of pre-cooled buffer (4°C) (the same buffer used to dilute the compound). The plate was dried at 37°C for 2 hours. After adding 50 µL of liquid scintillation fluid (MicroScint20, Perkin Elmer) to each well and incubating for 30 minutes, the radioactivity was measured using a Topcount plate reader for 30 seconds per well.
For each compound, its 8-point reading data (2× of 8 readings) were imported into XLfit software and fitted to the sigmoidal curve. The EC50 of the compound for SSTR2 was calculated based on the mathematically optimal sigmoidal dose-response model equation: y−A + ((B−A))/(1 + (((C)/(x)))^D) [formula] where A represents the bottom of the curve, B represents the top of the curve, C represents the relative EC50, D represents the Hill slope, y represents the percentage effect value (% Effect) of the curve fitting, and x represents the molar concentration.

The mark [1] stands for this setting: concentration x calculated from the fit at y = 50% effect, read-out: Absolute EC50.
Setting [2] is: parameter C of sigmoidal fit, 8 concentrations in duplicate, read-out: Relative EC50.

pEC50: −log10 of the molar value. Where two headings read alike, the source gives them in different places. Numbered stars: 1 amine (or outer) side, 2 acyl side, 3 side chain; on linkers, the order of the positions; unused ones are H or OH. Bridge positions count the residues as written; N and C are the ends. Square brackets hold non-standard residues; d marks the D form. Peptide text beside a SMILES is read from it. * marks the point of attachment. Phe(3-CH2NH2) = O=C([C@H](Cc1cccc(CN[*:3])c1)N[*:1])[*:2]; DOTA = O=C(O)CN1CCN(CC(=O)O)CCN(CC(=O)*)CCN(CC(=O)O)CC1; X2 = CC(C)(CN)CC[C@H](N[*:1])C(=O)[*:2]; X1 = CC(CN)CC[C@H](N[*:1])C(=O)[*:2]; Thr(ol) = C[C@@H](O)[C@H](N)CO

T1 sequence (P30874 whole entry): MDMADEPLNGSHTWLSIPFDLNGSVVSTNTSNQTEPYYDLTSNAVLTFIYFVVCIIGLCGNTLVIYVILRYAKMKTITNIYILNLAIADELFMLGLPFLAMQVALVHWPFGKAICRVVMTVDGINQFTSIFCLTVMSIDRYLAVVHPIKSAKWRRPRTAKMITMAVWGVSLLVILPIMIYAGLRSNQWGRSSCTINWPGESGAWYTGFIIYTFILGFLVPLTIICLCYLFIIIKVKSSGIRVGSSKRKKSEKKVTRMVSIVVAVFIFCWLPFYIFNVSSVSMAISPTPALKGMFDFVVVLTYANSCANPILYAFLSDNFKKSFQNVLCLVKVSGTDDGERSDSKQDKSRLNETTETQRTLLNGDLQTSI

By pEC50 is commonly meant the EC50 on a negative log10 scale, so that one unit is a factor of ten. As a reminder, the Hill slope is a measure of the steepness of the concentration-response curve. Molecule `C[C@@H](O)[C@@H]1NC(=O)[C@H](C2CCCC(CN)C2)NC(=O)[C@@H](Cc2c[nH]c3ccccc23)NC(=O)[C@H](Cc2ccccc2)NC(=O)[C@@H](NC(=O)[C@H](N)Cc2ccccc2)CSSC[C@@H](C(=O)N[C@H](CO)[C@@H](C)O)NC1=O` (single isomer, unassigned) [Compound 4] came in with a Bottom of 11.7%, a Top of 99.9% and a Hill slope of 1.07. Besides, the negative-log EC50 (pEC50) under setting [1] was 10.15. Further, the pEC50 under setting [2] is 10.04.

`C[C@@H](O)[C@@H]1NC(=O)[C@H](C2CCCC(CN)C2)NC(=O)[C@@H](Cc2c[nH]c3ccccc23)NC(=O)[C@H](Cc2ccccc2)NC(=O)[C@@H](NC(=O)[C@H](N)Cc2ccccc2)CSSC[C@@H](C(=O)N[C@H](CO)[C@@H](C)O)NC1=O` (single isomer, unassigned) [Compound 7p2]: the Bottom was 10.8%, the Top is reported as 99.5% and the Hill slope came to 1.08.

Consider `C[C@@H](O)[C@@H]1NC(=O)[C@H](CCCCCN)NC(=O)[C@@H](Cc2c[nH]c3ccccc23)NC(=O)[C@H](Cc2ccccc2)NC(=O)[C@@H](NC(=O)[C@H](N)Cc2ccccc2)CSSC[C@@H](C(=O)N[C@H](CO)[C@@H](C)O)NC1=O` [Compound 1], for which the pEC50 is 9.13 under setting [1] and 8.89 under setting [2].

Turning to `C[C@@H](O)[C@@H]1NC(=O)[C@H](CCC(C)(C)CN)NC(=O)[C@@H](Cc2c[nH]c3ccccc23)NC(=O)[C@H](Cc2ccccc2)NC(=O)[C@@H](NC(=O)[C@H](N)Cc2ccccc2)CSSC[C@@H](C(=O)N[C@H](CO)[C@@H](C)O)NC1=O` [Compound 2] (H-[dF]CF[dW][X2]TC[Thr(ol)]; disulfide 2-7), the pEC50 was 9.00 under setting [1] and 8.92 under setting [2].

`CC(CN)CC[C@@H]1NC(=O)[C@@H](Cc2c[nH]c3ccccc23)NC(=O)[C@H](Cc2ccccc2)NC(=O)[C@@H](NC(=O)[C@H](N)Cc2ccccc2)CSSC[C@@H](C(=O)N[C@H](CO)[C@@H](C)O)NC(=O)[C@H]([C@@H](C)O)NC1=O` (some centres unmarked) [Compound 3] (H-[dF]CF[dW][X1]TC[Thr(ol)]; disulfide 2-7): the pEC50 is, setting by setting: under setting [1], 9.60; under setting [2], 9.54.

In the case of `C[C@@H](O)[C@@H]1NC(=O)[C@H](Cc2cccc(CN)c2)NC(=O)[C@@H](Cc2c[nH]c3ccccc23)NC(=O)[C@H](Cc2ccccc2)NC(=O)[C@@H](NC(=O)[C@H](N)Cc2ccccc2)CSSC[C@@H](C(=O)N[C@H](CO)[C@@H](C)O)NC1=O` [Compound 5] (H-[dF]CF[dW][Phe(3-CH2NH2)]TC[Thr(ol)]; disulfide 2-7), the Bottom was determined as 8.7%, the Top is 100.0% and the Hill slope came to 0.84.

Molecule `C[C@@H](O)[C@H](NC(=O)[C@@H]1CSSC[C@H](NC(=O)[C@@H](Cc2ccccc2)NC(=O)CN2CCN(CC(=O)O)CCN(CC(=O)O)CCN(CC(=O)O)CC2)C(=O)N[C@@H](Cc2ccc(O)cc2)C(=O)N[C@H](Cc2c[nH]c3ccccc23)C(=O)N[C@@H](CCC(C)(C)CN)C(=O)N[C@@H]([C@@H](C)O)C(=O)N1)C(=O)O` [Compound 6] ({DOTA}-[dF]CY[dW][X2]TCT-OH; disulfide 2-7; N-terminus and C-terminus assumed) had a Bottom of 13.2%, a Top of 98.3% and a Hill slope of 0.88.
